This note sets out measurements from US20250064941A1, “SIGLEC LIGANDS, CONJUGATES, AND METHODS OF USE THEREOF” (Osprey Biopharmaceuticals, Inc., priority 2023, published 2025).

Assay [1] deals with T1, human Siglec-2/CD22 protein (Homo sapiens, UniProt P20273).
T1 construct: purchased Acro Biosystems SI2-H82E3
T1 sequence (P20273 20-847): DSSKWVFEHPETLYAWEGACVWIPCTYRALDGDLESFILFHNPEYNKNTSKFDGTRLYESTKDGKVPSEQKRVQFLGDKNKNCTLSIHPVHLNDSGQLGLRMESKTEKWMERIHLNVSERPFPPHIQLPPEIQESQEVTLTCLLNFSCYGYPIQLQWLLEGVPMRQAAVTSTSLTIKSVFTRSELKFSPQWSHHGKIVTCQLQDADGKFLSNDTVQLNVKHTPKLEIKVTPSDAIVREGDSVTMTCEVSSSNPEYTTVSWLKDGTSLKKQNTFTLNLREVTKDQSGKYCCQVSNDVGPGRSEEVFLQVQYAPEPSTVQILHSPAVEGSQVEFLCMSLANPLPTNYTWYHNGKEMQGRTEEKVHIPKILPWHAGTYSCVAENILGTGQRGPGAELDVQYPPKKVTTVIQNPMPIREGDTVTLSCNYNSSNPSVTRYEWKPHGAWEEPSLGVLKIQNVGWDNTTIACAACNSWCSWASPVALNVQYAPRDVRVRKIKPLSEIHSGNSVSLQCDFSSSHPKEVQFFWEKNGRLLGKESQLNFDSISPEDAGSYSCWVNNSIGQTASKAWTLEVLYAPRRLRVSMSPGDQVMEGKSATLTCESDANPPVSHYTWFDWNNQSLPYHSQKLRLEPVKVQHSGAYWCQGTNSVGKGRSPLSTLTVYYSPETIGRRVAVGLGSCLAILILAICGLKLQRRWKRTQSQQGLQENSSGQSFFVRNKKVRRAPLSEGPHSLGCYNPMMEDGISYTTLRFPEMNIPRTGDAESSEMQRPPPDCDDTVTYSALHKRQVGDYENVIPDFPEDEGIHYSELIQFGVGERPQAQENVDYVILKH
The assay can be described thus: SPR binding affinity to human CD22. As to conditions: steady-state analysis. The protocol: (§1) Prior to immobilization, CD22 proteins were treated with SialoExo (Genovis, Cat #G1-SM1-020) for 4 hours at 37° C. to remove native sialic acid residues.
(§2) Capture of biotinylated CD22 constructs was performed using a Cytiva SA chip (BR100398) on a Biacore 8K instrument.
(§3) Binding experiments of Siglec-ligand conjugated proteins or Siglec ligand compounds were performed on the surfaces prepared above in 10 mM HEPES, 150 mM NaCl, 0.05% Tween-20, pH 7.5, 1% DMSO as the running buffer. […] The compounds were then allowed to dissociate from the surface for 120 seconds. […] Solvent correction was performed using 0.5, 1, 1.5, and 2% DMSO spike into running buffer without DMSO. […] Data was analyzed using steady-state analysis in Biacore Insight Evaluation Software, version 3.0 for Siglec ligand compounds.
Background: SPR reads the build-up and loss of mass on a sensor chip optically.

Assay [2] concerns the target T2, mouse Siglec-2-Fc-Avi (CD22) (Mus musculus, UniProt P35329).
T2 construct: made in house
T2 sequence (P35329 22-708 limits assumed): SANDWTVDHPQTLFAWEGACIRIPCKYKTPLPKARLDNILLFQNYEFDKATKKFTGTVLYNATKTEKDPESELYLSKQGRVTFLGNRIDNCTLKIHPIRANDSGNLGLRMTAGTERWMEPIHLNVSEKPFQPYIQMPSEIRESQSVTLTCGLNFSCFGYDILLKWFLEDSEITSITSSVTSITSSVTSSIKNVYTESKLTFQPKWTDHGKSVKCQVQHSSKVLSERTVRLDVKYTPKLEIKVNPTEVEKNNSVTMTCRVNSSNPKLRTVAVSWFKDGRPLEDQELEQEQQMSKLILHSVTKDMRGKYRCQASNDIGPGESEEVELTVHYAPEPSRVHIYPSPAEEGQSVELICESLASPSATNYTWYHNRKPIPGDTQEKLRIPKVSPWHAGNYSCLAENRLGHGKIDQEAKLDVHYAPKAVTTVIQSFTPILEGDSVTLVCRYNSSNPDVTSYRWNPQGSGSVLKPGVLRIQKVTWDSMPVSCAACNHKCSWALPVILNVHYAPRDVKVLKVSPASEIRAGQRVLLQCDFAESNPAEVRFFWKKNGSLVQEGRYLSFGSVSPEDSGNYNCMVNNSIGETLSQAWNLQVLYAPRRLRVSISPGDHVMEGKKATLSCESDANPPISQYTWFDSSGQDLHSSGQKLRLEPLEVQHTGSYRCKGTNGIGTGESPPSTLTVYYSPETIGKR
The assay can be described thus: SPR binding affinity to mouse CD22. The note with it: steady-state analysis. The method, then:
as §1, §2, §3

With `CC(=O)NCCOCCOCCOCCOCCC(=O)NCCCCCO[C@]1(C(=O)O)C[C@H](O)[C@@H](NC(C)=O)[C@H]([C@H](O)[C@H](O)CNC(=O)Cc2ccc(Cl)cc2)O1` [Compound 249, (2R,4S,5R,6R)-5-acetamido-6-((1R,2R)-3-(2-(4-chlorophenyl)acetamido)-1,2-dihydroxypropyl)-2-((2,18-dioxo-6,9,12,15-tetraoxa-3,19-diazatetracosan-24-yl)oxy)-4-hydroxytetrahydro-2H-pyran-2-carboxylic acid], the Kd in assay [1] and in assay [2] was 1 to 10 µM each time.

As for `CC(=O)NCCOCCOCCOCCOCCNC(=O)CCCCCCO[C@]1(C(=O)O)C[C@H](O)[C@@H](NC(C)=O)[C@H]([C@H](O)[C@H](O)CNC(=O)c2cccc(Cl)c2)O1` [Compound 270, (2R,4S,5R,6R)-5-acetamido-6-((1R,2R)-3-(3-chlorobenzamido)-1,2-dihydroxypropyl)-2-((2,19-dioxo-6,9,12,15-tetraoxa-3,18-diazapentacosan-25-yl)oxy)-4-hydroxytetrahydro-2H-pyran-2-carboxylic acid], the Kd – broadly, the free concentration of one partner at which half of the binding sites on the other are occupied at equilibrium, for simple one-to-one binding – was 1 to 10 µM in assay [1] and over 10 µM in assay [2].

For the compound `C#CCOP(=O)(O)OCCCCO[C@]1(C(=O)O)C[C@H](O)[C@@H](NC(=O)CO)[C@H]([C@H](O)[C@H](O)CNC(=O)Cc2ccc(Cl)cc2)O1` [Compound 115, (2R,4S,5R,6R)-6-((1R,2R)-3-(2-(4-chlorophenyl)acetamido)-1,2-dihydroxypropyl)-4-hydroxy-2-(4-((hydroxy(prop-2-yn-1-yloxy)phosphoryl)oxy)butoxy)-5-(2-hydroxyacetamido)tetrahydro-2H-pyran-2-carboxylic acid], the Kd was under 1 µM in assay [1] and 1 to 10 µM in assay [2].

Take `C#CCOP(=O)(O)OCCCCCO[C@]1(C(=O)O)C[C@H](O)[C@@H](NC(=O)CO)[C@H]([C@H](O)[C@H](O)CNC(=O)Cc2ccc(Cl)cc2)O1` [Compound 95, (2R,4S,5R,6R)-6-((1R,2R)-3-(2-(4-chlorophenyl)acetamido)-1,2-dihydroxypropyl)-4-hydroxy-2-((5-((hydroxy(prop-2-yn-1-yloxy)phosphoryl)oxy)pentyl)oxy)-5-(2-hydroxyacetamido)tetrahydro-2H-pyran-2-carboxylic acid]: the equilibrium dissociation constant (Kd) in assay [1] was under 1 µM; in assay [2], 1 to 10 µM.

On to `CC(=O)NCCOCCOCCOCCOCCn1cc(CCCCCCO[C@]2(C(=O)O)C[C@H](O)[C@@H](NC(=O)CO)[C@H]([C@H](O)[C@H](O)CNC(=O)Cc3ccc(Cl)cc3)O2)nn1` [Compound 263, (2R,4S,5R,6R)-6-((1R,2R)-3-(2-(4-chlorophenyl)acetamido)-1,2-dihydroxypropyl)-4-hydroxy-5-(2-hydroxyacetamido)-2-((6-(1-(2-oxo-6,9,12,15-tetraoxa-3-azaheptadecan-17-yl)-1H-1,2,3-triazol-4-yl)hexyl)oxy)tetrahydro-2H-pyran-2-carboxylic acid], for which the Kd in assay [1] is under 1 µM; in assay [2], 1 to 10 µM.

Turning to `C#CCOC(=O)NCc1ccc(CO[C@]2(C(=O)O)C[C@H](O)[C@@H](NC(=O)CO)[C@H]([C@H](O)[C@H](O)CNC(=O)Cc3ccc(Cl)cc3)O2)cc1` [Compound 117, (2R,4S,5R,6R)-6-((1R,2R)-3-(2-(4-chlorophenyl)acetamido)-1,2-dihydroxypropyl)-4-hydroxy-5-(2-hydroxyacetamido)-2-((4-((((prop-2-yn-1-yloxy)carbonyl)amino)methyl)benzyl)oxy)tetrahydro-2H-pyran-2-carboxylic acid], the Kd in assay [1] and in assay [2] was under 1 µM throughout.

In the case of `C#CCOCCOCCNc1c(NCCCCCCO[C@]2(C(=O)O)C[C@H](O)[C@@H](NC(=O)CO)[C@H]([C@H](O)[C@H](O)CNC(=O)c3cccc(Oc4ccccc4)c3)O2)c(=O)c1=O` [Compound 39, (2R,4S,5R,6R)-6-((1R,2R)-1,2-dihydroxy-3-(3-phenoxybenzamido)propyl)-2-((6-((3,4-dioxo-2-((2-(2-(prop-2-yn-1-yloxy)ethoxy)ethyl)amino)cyclobut-1-en-1-yl)amino)hexyl)oxy) -4-hydroxy-5-(2-hydroxyacetamido) tetrahydro-2H-pyran-2-carboxylic acid], the Kd in assay [1] is under 1 µM; in assay [2], 1 to 10 µM.

Take `C#CCOCCCCCCO[C@]1(C(=O)O)C[C@H](O)[C@@H](NC(=O)c2ccccc2)[C@H]([C@H](O)[C@H](O)CNC(=O)Cc2ccc(Cl)cc2)O1` [Compound 92, (2R,4S,5R,6R)-5-benzamido-6-((1R,2R)-3-(2-(4-chlorophenyl)acetamido)-1,2-dihydroxypropyl)-4-hydroxy-2-((6-(prop-2-yn-1-yloxy)hexyl)oxy)tetrahydro-2H-pyran-2-carboxylic acid]: the Kd was under 1 µM in assay [1] and over 10 µM in assay [2].

In the case of `CC(=O)NCCOCCOCCOCCOCCn1cc(COCCCCCCO[C@]2(C(=O)O)C[C@H](O)[C@@H](NC(=O)CO)[C@H]([C@H](O)[C@H](O)CNC(=O)Cc3ccc(Cl)cc3)O2)nn1` [Compound 262, (2R,4S,5R,6R)-6-((1R,2R)-3-(2-(4-chlorophenyl)acetamido)-1,2-dihydroxypropyl)-4-hydroxy-5-(2-hydroxyacetamido)-2-((6-((1-(2-oxo-6,9,12,15-tetraoxa-3-azaheptadecan-17-yl)-1H-1,2,3-triazol-4-yl)methoxy)hexyl)oxy)tetrahydro-2H-pyran-2-carboxylic acid], the Kd in assay [1] was under 1 µM; in assay [2] it was 1 to 10 µM.

Turning to `CC(=O)NCCOCCOCCOCCOCCNc1c(NCCCCCCO[C@]2(C(=O)O)C[C@H](O)[C@@H](NC(C)=O)[C@H]([C@H](O)[C@H](O)CNC(=O)Cc3ccc(Cl)cc3)O2)c(=O)c1=O` [Compound 248, (2R,4S,5R,6R)-5-acetamido-6-((1R,2R)-3-(2-(4-chlorophenyl)acetamido)-1,2-dihydroxypropyl)-2-((6-((3,4-dioxo-2-((2-oxo-6,9,12,15-tetraoxa-3-azaheptadecan-17-yl)amino)cyclobut-1-en-1-yl)amino)hexyl)oxy)-4-hydroxytetrahydro-2H-pyran-2-carboxylic acid], the Kd is under 1 µM in assay [1] and 1 to 10 µM in assay [2].

As for `CC(=O)NCCOCCOCCOCCOCCNC(=O)NCCCCCCO[C@]1(C(=O)O)C[C@H](O)[C@@H](NC(C)=O)[C@H]([C@H](O)[C@H](O)CNC(=O)c2cccc(Cl)c2)O1` [Compound 269, (2R,4S,5R,6R)-5-acetamido-6-((1R,2R)-3-(3-chlorobenzamido)-1,2-dihydroxypropyl)-2-((2,19-dioxo-6,9,12,15-tetraoxa-3,18,20-triazahexacosan-26-yl)oxy)-4-hydroxytetrahydro-2H-pyran-2-carboxylic acid], the dissociation constant Kd in assay [1] is 1 to 10 µM; in assay [2], over 10 µM.

Regarding `CC(=O)NCCOCCOCCOCCOCc1cn(CCCCCCO[C@]2(C(=O)O)C[C@H](O)[C@@H](NC(C)=O)[C@H]([C@H](O)[C@H](O)CNC(=O)Cc3ccc(Cl)cc3)O2)nn1` [Compound 250, (2R,4S,5R,6R)-5-acetamido-6-((1R,2R)-3-(2-(4-chlorophenyl)acetamido)-1,2-dihydroxypropyl)-4-hydroxy-2-((6-(4-(15-oxo-2,5,8,11-tetraoxa-14-azahexadecyl)-1H-1,2,3-triazol-1-yl)hexyl)oxy) tetrahydro-2H-pyran-2-carboxylic acid], the values for the Kd in assay [1] and in assay [2] were under 1 µM and 1 to 10 µM, respectively.
